We go through seven compounds from patent US20230339939A1 (Bayer Aktiengesellschaft, priority 2020, published 2023).

Read-outs that look alike come from different tables or passages of the source.

What all share (type): biochemical
For test [1], the target named is T1, CSNK1A1 (Homo sapiens (Human), UniProt P48729). The test can be described thus: CSNK1A1 High ATP Assay (ADP-Glo, 1 mM ATP). The following applies: median, read-out: CSNK1A1 high ATP assay IC50 [mol/l] (median). The method, then:
CSNK1A1-inhibitory activity of compounds of the present invention in presence of 1 mM adenosine-tri-phosphate (ATP) was quantified employing the CSNK1A1-high-ATP-assay as described in the following paragraphs. In essence, the enzyme activity is measured by quantification of the adenosine-di-phosphate (ADP), which is generated as a co-product of the enzyme reaction, via the “ADP-Glo™ Kinase Assay” kit from the company Promega. This detection system works as follows: In a first step the ATP not consumed in the kinase reaction is quantitatively converted to cAMP employing an adenylate cyclase (“ADP-Glo-reagent”), then the adenylate cyclase is stopped and the ADP generated in the kinase reaction converted to ATP which generates in a luciferase-based reaction a glow-luminescence signal (“Kinase Detection Reagent”).
(§1) Recombinant fusion protein of N-terminal Glutathion-S-Transferase (GST) and full-length human CSNK1A1, expressed by baculovirus infected insect cells and purified via Glutathion affinity chromatography, was purchased from Life Technologies (product no. PV4174) and used as enzyme. As substrate for the kinase reaction the biotinylated peptide biotin-Ahx-KRRRAL-pS-VASLPGL (C-terminus in amide form) was used which can be purchased e.g. from the company Biosyntan (Berlin-Buch, Germany).
For the assay 50 nl of a 100 fold concentrated solution of the test compound in DMSO was pipetted into a white low volume 384-well microtiter plate (Greiner Bio-One, Frickenhausen, Germany), 2 μL of a solution of CSNK1A1 in aqueous assay buffer [50 mM HEPES pH 7.5, 10% (v/v) glycerol, 10 mM MgCl2, 50 mM NaCl, 1 mM dithiothreitol, 0.01% (w/v) bovine serum albumin, 0.01% (v/v) Triton X-100] were added and the mixture was incubated for 15 min at 22° C. to allow pre-binding of the test compounds to the enzyme before the start of the kinase reaction. […] The concentration of CSNK1A1 was adjusted depending of the activity of the enzyme lot and was chosen appropriate to have the assay in the linear range, a typical concentration is about 0.4 ng/μL. The reaction was stopped by the addition of 2.5 μL of “ADP-Glo-reagent” (1:1.5 fold diluted with water) and the resulting mixture was incubated at 22° C. for 1 h to convert the ATP not consumed in the kinase reaction completely […]. Subsequently 2.5 μL of the “kinase detection reagent” (1.2 fold more concentrated than recommended by the producer) were added, the resulting mixture was incubated at 22° C. for 1 h and then the luminescence measured with a suitable measurement instrument (e.g. Viewlux™ from Perkin-Elmer). The amount of emitted light was taken as a measure for the amount of ADP generated and thereby for the activity of the CSNK1A1.
A general note: ADP-Glo first removes unused ATP, then detects ADP through luciferase.

Test [2] addresses wild-type Epidermal Growth Factor Receptor (EGFR) (Homo sapiens (Human), UniProt P00533). Description: WT-EGFR Kinase Assay (TR-FRET, 2 mM ATP). From the text:
Inhibitory activity of compounds of the present invention against wild-type Epidermal Growth Factor Receptor (EGFR) was quantified employing the TR-FRET based EGFR assay as described in the following paragraphs.
Recombinant fusion protein of N-terminal Glutathion-S-Transferase (GST) and a fragment of human EGFR (amino acids R669 to A1210), expressed in Sf9 insect cells and purified via affinity chromatography using Glutathion Sepharose as described above, was used as kinase. As substrate for the kinase reaction the biotinylated peptide biotin-Ahx-[…] (C-terminus in amide form) was used which can be purchased e.g. form the company Biosynthan GmbH (Berlin-Buch, Germany).
For the assay 50 nl of a 100 fold concentrated solution of the test compound in DMSO was pipetted into either a black low volume 384 well microtiter plate or a black 1536 well microtiter plate (both Greiner Bio-One, Frickenhausen, Germany), 2 μL of a solution of EGFR in aqueous assay buffer [50 mM Hepes pH 7.0, 10 mM MgCl2, 1 mM dithiothreitol, 0.5 mM EGTA, 0.3 mM activated sodium ortho-vanadate, 0.005% (w/v) bovine serum albumin, 0.005% (v/v) Tween-20] were added and the mixture was incubated for 15 min at 22° C. to allow pre-binding of the test compounds to the enzyme before the start of the kinase reaction. […] The concentration of EGFR was adjusted depending of the activity of the enzyme lot and was chosen appropriate to have the assay in the linear range, typical concentration was 7.6 pg/μL. The reaction was stopped by the addition of 3 μL of a solution of HTRF detection reagents (83.3 nM streptavidine-XL665 [Cisbio Bioassays, Codolet, France] and 1.67 nM PT66-Tb-Cryptate, a terbium-cryptate labelled anti-phospho-tyrosine antibody from Cisbio Bioassays [instead of the PT66-Tb-cryptate PT66-Eu-Chelate from Perkin Elmer can also be used]) in an aqueous EDTA-solution (133.3 mM EDTA, 0.2% (w/v) bovine serum albumin in 50 mM HEPES pH 7.5).
The resulting mixture was incubated 1 h at 22° C. to allow the binding of the biotinylated phosphorylated peptide to the streptavidine-XL665 and the PT66-Tb-Cryptate. Subsequently the amount of phosphorylated substrate was evaluated by measurement of the resonance energy transfer from the PT66-Tb-Cryptate to the streptavidine-XL665. Therefore, the fluorescence emissions at 620 nm and 665 nm after excitation at 337 nm were measured in a HTRF reader, e.g. a Pherastar (BMG Labtechnologies, Offenburg, Germany) or a Viewlux (Perkin-Elmer). The ratio of the emissions at 665 nm and at 622 nm was taken as the measure for the amount of phosphorylated substrate.

The target of test [3] is T1, CSNK1A1. The test can be described thus: CSNK1A1 Assay 2 (ADP-Glo, 1 μM ATP, substrate biotin-Ahx-KRRRAL-pS-VASLPGL). The following applies: median, read-out: CSNK1A1 Assay 2 IC50 [mol/l] (median). The method, then:
CSNK1A1-inhibitory activity of compounds of the present invention in presence of 1 μM adenosine-tri-phosphate (ATP) was quantified employing the CSNK1A1 assay as described in the following paragraphs. In essence, the enzyme activity is measured by quantification of the adenosine-di-phosphate (ADP), which is generated as a co-product of the enzyme reaction, via the “ADP-Glo™ Kinase Assay” kit from the company Promega. This detection system works as follows: In a first step the ATP not consumed in the kinase reaction is quantitatively converted to cAMP employing an adenylate cyclase (“ADP-Glo-reagent”), then the adenylate cyclase is stopped and the ADP generated in the kinase reaction converted to ATP which generates in a luciferase-based reaction a glow-luminescence signal (“Kinase Detection Reagent”).
as §1
For the assay 50 nl of a 100 fold concentrated solution of the test compound in DMSO was pipetted into a white 1536-well microtiter plate (Greiner Bio-One, Frickenhausen, Germany), 2 μL of a solution of CSNK1A1 in aqueous assay buffer [50 mM HEPES pH 7.5, 10% (v/v) glycerol, 10 mM MgCl2, 50 mM NaCl, 1 mM dithiothreitol, 0.01% (w/v) bovine serum albumin, 0.01% (v/v) Triton X-100] were added and the mixture was incubated for 15 min at 22° C. to allow pre-binding of the test compounds to the enzyme before the start of the kinase reaction. […] The concentration of CSNK1A1 was adjusted depending of the activity of the enzyme lot and was chosen appropriate to have the assay in the linear range, a typical concentrations are about 0.0375 ng/μL. The reaction was stopped by the addition of 2.5 μL of “ADP-Glo-reagent” (1:1.5 fold diluted with water) and the resulting mixture was incubated at 22° C. for 1 h to convert the ATP not consumed in the kinase reaction completely […]. Subsequently 2.5 μL of the “kinase detection reagent” (1.2 fold more concentrated than recommended by the producer) were added, the resulting mixture was incubated at 22° C. for 1 h and then the luminescence measured with a suitable measurement instrument (e.g. Viewlux™ from Perkin-Elmer). The amount of emitted light was taken as a measure for the amount of ADP generated and thereby for the activity of the CSNK1A1.

For test [4], the target named is CSNK1D (Homo sapiens (Human), UniProt P48730). Description: CSNK1D Assay (ADP-Glo, 1 μM ATP). Conditions: median, read-out: CSNK1D IC50 [mol/l] (median). As to the method:
CSNK1D-inhibitory activity of compounds of the present invention in presence of 1 μM adenosine-tri-phosphate (ATP) was quantified employing the CSNK1 D assay as described in the following paragraphs. In essence, the enzyme activity is measured by quantification of the adenosine-di-phosphate (ADP), which is generated as a co-product of the enzyme reaction, via the “ADP-Glo™ Kinase Assay” kit from the company Promega. This detection system works as follows: In a first step the ATP not consumed in the kinase reaction is quantitatively converted to cAMP employing an adenylate cyclase (“ADP-Glo-reagent”), then the adenylate cyclase is stopped and the ADP generated in the kinase reaction converted to ATP which generates in a luciferase-based reaction a glow-luminescence signal (“Kinase Detection Reagent”).
Recombinant fusion protein of N-terminal Glutathion-S-Transferase (GST) and full-length human CSNK1D, expressed by baculovirus infected insect cells and purified via Glutathion affinity chromatography, was purchased from Life Technologies (product no. PV3665) and used as enzyme. As substrate for the kinase reaction the biotinylated peptide Btn-Ahx-[…] (C-terminus in amide form) was used which can be purchased e.g. from the company Biosyntan (Berlin-Buch, Germany).
For the assay 50 nl of a 100 fold concentrated solution of the test compound in DMSO was pipetted into a white 1536-well microtiter plate (Greiner Bio-One, Frickenhausen, Germany), 2 μL of a solution of CSNK1D in aqueous assay buffer [50 mM HEPES pH 7.5, 10% (v/v) glycerol, 10 mM MgCl2, 50 mM NaCl, 1 mM dithiothreitol, 0.01% (w/v) bovine serum albumin, 0.01% (v/v) Triton X-100] were added and the mixture was incubated for 15 min at 22° C. to allow pre-binding of the test compounds to the enzyme before the start of the kinase reaction. […] The concentration of CSNK1D was adjusted depending of the activity of the enzyme lot and was chosen appropriate to have the assay in the linear range, a typical concentration is about 0.5 ng/μL. The reaction was stopped by the addition of 2.5 μL of “ADP-Glo-reagent” (1:1.5 fold diluted with water) and the resulting mixture was incubated at 22° C. for 1 h to convert the ATP not consumed in the kinase reaction completely […]. Subsequently 2.5 μL of the “kinase detection reagent” (1.2 fold more concentrated than recommended by the producer) were added, the resulting mixture was incubated at 22° C. for 1 h and then the luminescence measured with a suitable measurement instrument (e.g. Viewlux™ from Perkin-Elmer). The amount of emitted light was taken as a measure for the amount of ADP generated and thereby for the activity of the CSNK1D.

The mark [5] stands for this setting: read-out: EGFR Wildtype 2 mM ATP IC50 [mol/l] (median).

wild-type Epidermal Growth Factor Receptor (EGFR), sequence (P00533 669-1210): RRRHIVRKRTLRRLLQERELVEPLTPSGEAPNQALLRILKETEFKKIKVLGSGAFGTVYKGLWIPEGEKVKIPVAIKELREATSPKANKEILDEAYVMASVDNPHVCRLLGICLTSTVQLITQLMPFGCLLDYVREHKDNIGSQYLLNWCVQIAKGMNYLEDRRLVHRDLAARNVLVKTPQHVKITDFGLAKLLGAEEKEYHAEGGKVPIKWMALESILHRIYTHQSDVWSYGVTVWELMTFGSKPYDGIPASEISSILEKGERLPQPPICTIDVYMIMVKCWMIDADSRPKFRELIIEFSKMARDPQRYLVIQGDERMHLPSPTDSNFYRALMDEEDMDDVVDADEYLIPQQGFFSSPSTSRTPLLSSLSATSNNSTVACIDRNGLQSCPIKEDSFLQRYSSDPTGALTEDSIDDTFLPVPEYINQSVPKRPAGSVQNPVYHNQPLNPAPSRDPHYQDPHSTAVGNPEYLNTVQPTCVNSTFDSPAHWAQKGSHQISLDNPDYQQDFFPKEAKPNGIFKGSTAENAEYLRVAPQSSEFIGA
T1 sequence (P48729 whole entry): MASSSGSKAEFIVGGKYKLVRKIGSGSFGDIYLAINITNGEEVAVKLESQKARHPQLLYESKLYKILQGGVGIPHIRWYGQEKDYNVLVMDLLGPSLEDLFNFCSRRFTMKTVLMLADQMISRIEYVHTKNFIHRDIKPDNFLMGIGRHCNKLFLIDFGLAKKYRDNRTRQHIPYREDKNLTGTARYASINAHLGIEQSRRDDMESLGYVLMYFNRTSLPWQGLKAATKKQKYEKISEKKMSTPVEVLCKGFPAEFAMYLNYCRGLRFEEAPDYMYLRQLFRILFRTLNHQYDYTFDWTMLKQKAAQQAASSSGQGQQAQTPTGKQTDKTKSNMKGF
CSNK1D, sequence (P48730 whole entry): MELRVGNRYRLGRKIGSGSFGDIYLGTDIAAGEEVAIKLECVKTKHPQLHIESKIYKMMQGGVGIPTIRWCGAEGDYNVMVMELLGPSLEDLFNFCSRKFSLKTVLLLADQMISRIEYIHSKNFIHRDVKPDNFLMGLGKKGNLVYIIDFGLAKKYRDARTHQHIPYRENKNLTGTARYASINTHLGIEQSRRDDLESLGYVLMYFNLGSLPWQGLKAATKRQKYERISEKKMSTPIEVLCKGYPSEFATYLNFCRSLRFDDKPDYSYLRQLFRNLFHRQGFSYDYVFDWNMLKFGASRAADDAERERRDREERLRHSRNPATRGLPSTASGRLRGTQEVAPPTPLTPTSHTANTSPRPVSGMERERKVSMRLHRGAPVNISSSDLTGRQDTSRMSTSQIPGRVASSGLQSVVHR

For the compound `CC(C(=O)Nc1cc(-c2[nH]c3cccnc3c2-c2ccccc2)ccn1)c1ccc(F)cc1` (single isomer, unassigned; (+)) [Example 13, (+)-2-(4-fluorophenyl)-N-[4-(3-phenyl-1H-pyrrolo[3,2-b]pyridin-2-yl)pyridin-2-yl]propanamide], the IC50 was 91.6 nM in test [1], above 20000 nM in test [2] (setting [5]) and 1.66 nM in test [3].

Regarding `CC(C(=O)Nc1cc(-c2[nH]c3ccc(F)nc3c2-c2ccc(F)cn2)ccn1)c1ccc(F)cc1` (single isomer, unassigned; (+)) [Example 48, (+)-N-{4-[5-fluoro-3-(5-fluoropyridin-2-yl)-1H-pyrrolo[3,2-b]pyridin-2-yl]pyridin-2-yl}-2-(4-fluorophenyl)propanamide], the IC50 in test [1] was determined as 36.1 nM; in test [4], 3.96 nM; in test [3], 1.69 nM.

Consider `CC(C(=O)Nc1cc(-c2[nH]c3cccnc3c2-c2ccccc2)ccn1)c1ccc(F)cc1` (single isomer, unassigned; (-)) [Example 12, (−)-2-(4-fluorophenyl)-N-[4-(3-phenyl-1H-pyrrolo[3,2-b]pyridin-2-yl)pyridin-2-yl]propanamide], for which the IC50 in test [1] was 2510 nM; in test [2] (median), above 20000 nM; in test [3], 37 nM.

For `CC(C(=O)Nc1cc(-c2[nH]c3ccc(F)nc3c2-c2ccc(F)cn2)ccn1)c1ccc(F)cc1` (single isomer, unassigned; (-)) [Example 49, (−)-N-{4-[5-fluoro-3-(5-fluoropyridin-2-yl)-1H-pyrrolo[3,2-b]pyridin-2-yl]pyridin-2-yl}-2-(4-fluorophenyl)propanamide], the figures for the IC50 in test [1], in test [4] and in test [3] were 2580 nM, 33.1 nM and 34.5 nM, respectively.

Take `O=C(Cc1ccc(F)cc1)Nc1cc(-c2[nH]c3nccnc3c2-c2ccccc2)ccn1` [Example 18, 2-(4-fluorophenyl)-N-[4-(7-phenyl-5H-pyrrolo[2,3-b]pyrazin-6-yl)pyridin-2-yl]acetamide]: the IC50 was 260 nM in test [1], above 20000 nM in test [2] (setting [5]) and 3.33 nM in test [3].

Consider `O=C(Cc1ccc(F)cc1)Nc1cc(-c2[nH]c3nccnc3c2-c2ccccn2)ccn1` [Example 19, 2-(4-fluorophenyl)-N-{4-[7-(pyridin-2-yl)-5H-pyrrolo[2,3-b]pyrazin-6-yl]pyridin-2-yl}acetamide], for which the IC50 in test [1] is 33.1 nM; in test [2] (setting [5]) it was above 20000 nM; in test [3] it was 1.02 nM.

Turning to `O=C(Cc1ccc(F)cc1)Nc1cc(-c2[nH]c3ccnnc3c2-c2ccccc2)ccn1` [Example 20, 2-(4-fluorophenyl)-N-[4-(7-phenyl-5H-pyrrolo[3,2-c]pyridazin-6-yl)pyridin-2-yl]acetamide], the IC50 was 77.9 nM in test [1], above 20000 nM in test [2] (setting [5]) and 1.3 nM in test [3].
